Experimental data published in patent publication US20240067632A1, “WEE1 Degrading Compounds and Uses Thereof” (Bristol-Myers Squibb Company, priority 2022, published 2024).
Read-outs that look alike come from different tables or passages of the source.

Assays:
WEE1 = biological target: T1, WEE1 (Homo sapiens, UniProt P30291+Q96SW2); experiment: WEE1-ePL degradation assay (LentiX-WEE1-ePL-GSPT1-ND cells, InCELL Hunter luminescence, 4 h); assay type: cell-based; conditions: 293T-LentiX WEE1-ePL cells; for DC50: read-out: 293T-LentiX WEE1-ePL Degradation 4 hr (EC50)
T1 construct: C-terminal ePL-tagged (DiscoverX, Fremont, CA) full-length WEE1 expression construct; expressed in transfected cells; host or cells: LentiX-HEK293T (Invitrogen), lentiviral transduction; co-expressing GSPT1-GN (G576N, lacking the first 158 amino acids)
Method in brief: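 HEK293T cells stably expressing C-terminal ePL-tagged full-length WEE1, 2500 cells/well, treated 4 h at 37° C with a 10-point 3-fold series from 1 or 10 uM. Remaining WEE1-ePL read by InCELL Hunter luminescence after 30 min. EC50 came from a four-parameter logistic fit, with Ymax set from DMSO control.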

MKN45 cells = experiment: MKN45 cell proliferation assay (Cell-Titer-Glo, 120 h); assay type: cell-based; conditions: for EC50: Homo sapiens, MKN-45, 120 h, Cell-Titer-Glo, read-out: MKN45 Cell Prolif. 120 hr (EC50); for MKN45 Cell Prolif. 120 hr (Ymin-Obs): minimal percent of DMSO control observed in the concentrations tested
Method in brief: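 Growth inhibition was read as blank-corrected Cell-Titer-Glo luminescence expressed as percent DMSO control after 120 h at 37 C, 400 cells/well. Compounds tested in triplicate as 10-point half-log series from 1 or 10 uM, 0.1% DMSO; four-parameter fit gave EC50, and lowest observed percent control was reported as Ymin-obs.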

[1] = lower limit of the fit (Ymin=0 luciferase inhibitor, Ymax DMSO control)
[2] = lower limit of the fit (0 = luciferase inhibitor, Ymax = DMSO control)

Row | Compound | 293T-LentiX WEE1-ePL Degradation 4 hr (Ymin) (WEE1; [1]) | DC50 (WEE1) | EC50 (MKN45 cells) | MKN45 Cell Prolif. 120 hr (Ymin-Obs) (MKN45 cells) | 293T-LentiX WEE1-ePL Degradation 4 hr (Ymin) (WEE1; [2]) | EC50 (MKN45 cells; growth inhibition)
1 | CO[C@@H]1CCCC[C@H]1c1ccc2cc(CN3CC[C@H](Oc4ccc5c(c4)CN(C4CCC(=O)NC4=O)C5=O)C3)ccc2n1 (stereo partly drawn) [3-(5-{[(3S)-1-({2-[(1S,2R)-2-methoxycyclohexyl]quinolin-6-yl}methyl)pyrrolidin-3-yl]oxy}-1-oxo-2,3-dihydro-1H-isoindol-2-yl)piperidine-2,6-dione] | 32.43 | 21.5 nM | 428 nM | 51.58 | – | –
2 | CO[C@@H]1CCC[C@H]1c1ccc2cc(CN3CC[C@H](Oc4ccc5c(c4)CN(C4CCC(=O)NC4=O)C5=O)C3)ccc2n1 (stereo partly drawn) [3-(5-{[(3S)-1-({2-[(1S,2R)-2-methoxycyclopentyl]quinolin-6-yl}methyl)pyrrolidin-3-yl]oxy}-1-oxo-2,3-dihydro-1H-isoindol-2-yl)piperidine-2,6-dione] | 37.17 | 3.01 nM | 12 nM | 13.63 | – | –
3 | COC[C@H]1CCCC[C@@H]1c1ccc2cc(CN3CC[C@H](Oc4ccc5c(c4)CN(C4CCC(=O)NC4=O)C5=O)C3)ccc2n1 (stereo partly drawn) [3-(5-{[(3S)-1-({2-[(1S,2S)-2-(methoxymethyl)cyclohexyl]quinolin-6-yl}methyl)pyrrolidin-3-yl]oxy}-1-oxo-2,3-dihydro-1H-isoindol-2-yl)piperidine-2,6-dione] | 21.7 | 3.03 nM | 1.43 nM | 11.37 | – | –
4 | COC[C@H]1CCC[C@@H]1c1ccc2cc(CN3CC[C@H](Oc4ccc5c(c4)CN(C4CCC(=O)NC4=O)C5=O)C3)ccc2n1 (stereo partly drawn) [3-(5-{[(3S)-1-({2-[(1S,2S)-2-(methoxymethyl)cyclopentyl]quinolin-6-yl}methyl)pyrrolidin-3-yl]oxy}-1-oxo-2,3-dihydro-1H-isoindol-2-yl)piperidine-2,6-dione] | 27.68 | 5.38 nM | 11.9 nM | 11.37 | – | –
5 | COC[C@@H]1CCC[C@H](c2ccc3cc(CN4CC[C@H](Oc5ccc6c(c5)CN(C5CCC(=O)NC5=O)C6=O)C4)ccc3n2)C1 (stereo partly drawn) [3-(5-{[(3S)-1-({2-[(1S,3R)-3-(methoxymethyl)cyclohexyl]quinolin-6-yl}methyl)pyrrolidin-3-yl]oxy}-1-oxo-2,3-dihydro-1H-isoindol-2-yl)piperidine-2,6-dione] | 27.12 | 1.63 nM | 1.73 nM | 10.23 | – | –
6 | COC[C@@H]1CC[C@H](c2ccc3cc(CN4CC[C@H](Oc5ccc6c(c5)CN(C5CCC(=O)NC5=O)C6=O)C4)ccc3n2)C1 (stereo partly drawn) [3-(5-{[(3S)-1-({2-[(1S,3R)-3-(methoxymethyl)cyclopentyl]quinolin-6-yl}methyl)pyrrolidin-3-yl]oxy}-1-oxo-2,3-dihydro-1H-isoindol-2-yl)piperidine-2,6-dione] | 32.37 | 5.9 nM | 2.56 nM | 8.786 | – | –
7 | O=C1CCC(N2Cc3cc(O[C@H]4CCN(Cc5ccc6nc([C@H]7CCC[C@@H](O)C7)ccc6c5)C4)ccc3C2=O)C(=O)N1 (stereo partly drawn) [3-(5-{[(3S)-1-({2-[(1S,3R)-3-hydroxycyclohexyl]quinolin-6-yl}methyl)pyrrolidin-3-yl]oxy}-1-oxo-2,3-dihydro-1H-isoindol-2-yl)piperidine-2,6-dione] | – | 9.66 nM | – | 7.93 | 32 | 11.1 nM
8 | O=C1CCC(N2Cc3cc(O[C@H]4CCN(Cc5ccc6nc([C@H]7CC[C@@H](O)C7)ccc6c5)C4)ccc3C2=O)C(=O)N1 (stereo partly drawn) [3-(5-{[(3S)-1-({2-[(1S,3R)-3-hydroxycyclopentyl]quinolin-6-yl}methyl)pyrrolidin-3-yl]oxy}-1-oxo-2,3-dihydro-1H-isoindol-2-yl)piperidine-2,6-dione] | – | 2.99 nM | – | 7.68 | 31 | 2.66 nM
9 | CO[C@@H]1CCC[C@H](c2ccc3cc(CN4CC[C@H](Oc5ccc6c(c5)CN(C5CCC(=O)NC5=O)C6=O)C4)ccc3n2)C1 (stereo partly drawn) [3-(5-{[(3S)-1-({2-[(1S,3R)-3-methoxycyclohexyl]quinolin-6-yl}methyl)pyrrolidin-3-yl]oxy}-1-oxo-2,3-dihydro-1H-isoindol-2-yl)piperidine-2,6-dione] | – | 28.7 nM | – | 9.143 | 32 | 16.5 nM
10 | CO[C@@H]1CC[C@H](c2ccc3cc(CN4CC[C@H](Oc5ccc6c(c5)CN(C5CCC(=O)NC5=O)C6=O)C4)ccc3n2)C1 (stereo partly drawn) [3-(5-{[(3S)-1-({2-[(1S,3R)-3-methoxycyclopentyl]quinolin-6-yl}methyl)pyrrolidin-3-yl]oxy}-1-oxo-2,3-dihydro-1H-isoindol-2-yl)piperidine-2,6-dione] | – | 2.07 nM | – | 8.776 | 29.67 | 1.61 nM
11 | COC[C@H]1CCC[C@H](c2ccc3cc(CN4CC[C@H](Oc5ccc6c(c5)CN(C5CCC(=O)NC5=O)C6=O)C4)ccc3n2)C1 (stereo partly drawn) [3-(5-{[(3S)-1-({2-[(1S,3S)-3-(methoxymethyl)cyclohexyl]quinolin-6-yl}methyl)pyrrolidin-3-yl]oxy}-1-oxo-2,3-dihydro-1H-isoindol-2-yl)piperidine-2,6-dione] | 32.49 | 7.61 nM | 5.71 nM | 11.34 | – | –
12 | COC[C@H]1CC[C@H](c2ccc3cc(CN4CC[C@H](Oc5ccc6c(c5)CN(C5CCC(=O)NC5=O)C6=O)C4)ccc3n2)C1 (stereo partly drawn) [3-(5-{[(3S)-1-({2-[(1S,3S)-3-(methoxymethyl)cyclopentyl]quinolin-6-yl}methyl)pyrrolidin-3-yl]oxy}-1-oxo-2,3-dihydro-1H-isoindol-2-yl)piperidine-2,6-dione] | 33.9 | 6.8 nM | 2.52 nM | 8.033 | – | –
13 | O=C1CCC(N2Cc3cc(O[C@H]4CCN(Cc5ccc6nc([C@H]7CC[C@H](O)C7)ccc6c5)C4)ccc3C2=O)C(=O)N1 (stereo partly drawn) [3-(5-{[(3S)-1-({2-[(1S,3S)-3-hydroxycyclopentyl]quinolin-6-yl}methyl)pyrrolidin-3-yl]oxy}-1-oxo-2,3-dihydro-1H-isoindol-2-yl)piperidine-2,6-dione] | – | 2.67 nM | – | 8.695 | 27.5 | 3.24 nM
14 | CO[C@H]1CCC[C@H](c2ccc3cc(CN4CC[C@H](Oc5ccc6c(c5)CN(C5CCC(=O)NC5=O)C6=O)C4)ccc3n2)C1 (stereo partly drawn) [3-(5-{[(3S)-1-({2-[(1S,3S)-3-methoxycyclohexyl]quinolin-6-yl}methyl)pyrrolidin-3-yl]oxy}-1-oxo-2,3-dihydro-1H-isoindol-2-yl)piperidine-2,6-dione] | – | 3.58 nM | – | 9.255 | 30.5 | 2.01 nM
15 | CO[C@H]1CC[C@H](c2ccc3cc(CN4CC[C@H](Oc5ccc6c(c5)CN(C5CCC(=O)NC5=O)C6=O)C4)ccc3n2)C1 (stereo partly drawn) [3-(5-{[(3S)-1-({2-[(1S,3S)-3-methoxycyclopentyl]quinolin-6-yl}methyl)pyrrolidin-3-yl]oxy}-1-oxo-2,3-dihydro-1H-isoindol-2-yl)piperidine-2,6-dione] | – | 6.19 nM | – | 8.927 | 32.5 | 4.8 nM
16 | O=C1CCC(N2Cc3cc(O[C@H]4CCN(Cc5ccc6nc(N7C[C@@H]8C[C@H]7CO8)ncc6c5)C4)ccc3C2=O)C(=O)N1 (stereo partly drawn) [3-(5-{[(3S)-1-({2-[(1S,4S)-2-oxa-5-azabicyclo[2.2.1]heptan-5-yl]quinazolin-6-yl}methyl)pyrrolidin-3-yl]oxy}-1-oxo-2,3-dihydro-1H-isoindol-2-yl)piperidine-2,6-dione] | – | 12.3 nM | – | 9.576 | 34.5 | 9.86 nM
17 | O=C1CCC(N2Cc3cc(O[C@H]4CCN(Cc5ccc6nc(N7C[C@@H]8C[C@H]7CO8)ccc6c5)C4)ccc3C2=O)C(=O)N1 (stereo partly drawn) [3-(5-{[(3S)-1-({2-[(1S,4S)-2-oxa-5-azabicyclo[2.2.1]heptan-5-yl]quinolin-6-yl}methyl)pyrrolidin-3-yl]oxy}-1-oxo-2,3-dihydro-1H-isoindol-2-yl)piperidine-2,6-dione] | – | 2.98 nM | – | 8.09 | 34 | 5.54 nM
18 | C[C@@H]1CC(c2ccc3cc(CN4CC[C@H](Oc5ccc6c(c5)CN(C5CCC(=O)NC5=O)C6=O)C4)ccc3n2)CCO1 (stereo partly drawn) [3-(5-{[(3S)-1-({2-[(2R)-2-methyloxan-4-yl]quinolin-6-yl}methyl)pyrrolidin-3-yl]oxy}-1-oxo-2,3-dihydro-1H-isoindol-2-yl)piperidine-2,6-dione] | – | 10.5 nM | – | 14.5 | 29.54 | 10.9 nM
